Patent publication US11110105B2, “Compounds, composition and uses thereof for treating cancer” (INSTITUT GUSTAVE ROUSSY, priority 2017, dated 2021)

What was measured:
[1] = test system: MCA205 mouse sarcoma cell line; experiment: MTT assay on MCA205 cell line; type: cell-based; conditions: MCA205 WT cells, 15 μM or 35 μM
Experimental: (§1) RNA was extracted and qRT-PCR was performed with primers amplifying the unspliced (intron) and the spliced (exon) globin-SL8-intron RNA. Data are given as mean ±SEM of the ratio of 2^−ΔΔCt intron and 2^−ΔΔCt exon of at least three independent experiments. […] Data are express as mean ±SEM of the percentage of viable cells compared to the control condition of at least three independent experiments. *P<0.05, **P<0.01, ***P<0.001 (unpaired student t test).
(§2) MCA205 mouse sarcoma cell line is cultured at 37° C. under 5% CO2 in RPMI 1640 medium (Life Technologies) in the presence of 1% glutamine, 1% sodium pyruvate, 1% non-essential amino-acids, 1% penicillin/streptomycin and 10% FBS (Life Technologies) under standard conditions. B16F10 mouse melanoma cell line, MRC5 human fibroblast cell line and A375 human melanoma cell line are cultured at 37° C. under 5% CO2 in DMEM medium (Life Technologies) containing 1% glutamine, 1% penicillin/streptomycin and 10% FCS under standard conditions. A549 human lung carcinoma cell line is cultured at 37° C. under 5% CO2 in DMEM/F12+Glutamax I in the presence of 1% Hepes, 1% sodium pyruvate and 10% FBS under standard conditions. Stable MCA205-Globin-SL8-intron cell line are cultured under the same condition as MCA205 cell line with additional 2 mg/ml G418 (geneticin from Life Technologies) for selection. Stable B16F10-Globin-SL8-intron cell line are cultured under the same condition as B16F10 cell line with additional 2 mg/ml G418 (geneticin from Life Technologies) for selection. The SL8/Kb-specific (B3Z) T-cell reporter hybridoma are cultured at 37° C. under 5% CO2 in RPMI 1640 medium (Life Technologies) in the presence of 1% glutamine, 0.1% β-galactosidase, 1% penicillin/streptomycin and 10% FCS under standard conditions.
(§3) MTT assay on MCA205 and B16F10 cell lines treated with 6.25 μM, 15 μM or 25 μM of isoginkgetin. Dare are given as the mean of the percentage of cell viability ±SEM from at least three independent experiments.

[2] = test system: mouse sarcoma cell line MCA205; experiment: B3Z SL8-specific T-cell activation assay, MCA205; type: cell-based; conditions: MCA205, Globin-intron-SL8
Experimental: B3Z SL8-specific T-cell activation after co-culture with (A) human melanoma A375, human lung carcinoma A549 or normal human lung fibroblast MRC5 cell lines, all transiently expressing the intron-derived SL8 peptide and the H2-K^b molecules and treated upstream with 2,5 μM or 6,25 μM isoginkgetin for 18 hours; or with (B) mouse sarcoma MCA205 or mouse melanoma B16F10 cell lines both transiently expressing the intron-derived SL8 peptide and treated upstream with 6,25 μM, 15 μM or 25 μM isoginkgetin for 18 hours. […]
Data are given as mean ±SEM. *P<0.05, **P<0.01, ***P<0.001 (unpaired student t test). […] Tumor size was assessed every 3 to 4 days until reaching the established ethical endpoints. […]
MCA205 and B16F10 mouse cell lines are transfected with the plasmid YFP-Globin-SL8-intron or with the PCDNA3 empty plasmid (negative control) with the transfection reagent jetPRIME (Ozyme) or GeneJuice (Millipore) respectively according to each manufacturer protocol. […] Finally, the β-galactosidase activity is measured using the FLUOstar OPTIMA (BMG LABTECH Gmbh, Offenburg, Germany). Results are expressed as mean ±SEM. *P<0.05, **P<0.01, ***P<0.001 (unpaired student t test).

[3] = MTT assay on MCA205 cell line; type: cell-based, mouse; conditions: mouse, MCA205 sarcoma cells, MTT, read-out: % cell viability (±SEM)
Experimental: as §1, §2, §3

## COc1ccc(-c2cc(=O)c3c(OC)cc(OP(=O)([O-])[O-])c(-c4cc(-c5cc(=O)c6c(OC)cc(OP(=O)([O-])[O-])cc6o5)ccc4OC)c3o2)cc1.[Na+].[Na+].[Na+].[Na+] [IM2P2]
[1]
  toxicity (MTT, percentage of viable cells compared to control): no toxicity
[2]; 15 μM or 35 μM
  intron-SL8-derived antigen presentation (B3Z activation): decreases its presentation
[2]; 15 μM, 25 μM or 35 μM
  PTPs-dependent (intron-derived SL8) antigen presentation (B3Z activation): does not increase the presentation

## COc1ccc(-c2cc(=O)c3c(O)cc(O)c(-c4cc(-c5cc(=O)c6c(O)cc(O)cc6o5)ccc4OC)c3o2)cc1 [Isoginkgetin, isoginkgetin]
[3]; MCA205, 6.25 μM
  viability at 6.25 µM: 84.8%
[3]; MCA205, 15 μM
  viability at 15 µM: 56.3%
[3]; MCA205, 25 μM
  viability at 25 µM: 51.7%
